Test results published in patent US20250361261A1, “CYCLOPENTYL ADENOSINE DERIVATIVE AND PHARMACEUTICAL USE THEREOF” (priority 2022, published 2025).

Tested on: CFA inflammatory pain model
Assay: CFA inflammatory pain model, mechanical pain threshold by VonFrey electronic aesthesiometer
Format: in vivo, Sprague-Dawley (SD) rats
Excerpt: Experimental animals: SPF male Sprague-Dawley (SD) rats, weighing 180±30 g, obtained from Shanghai Sippe-Bk Lab Animal Co., Ltd. Experimental samples: Compounds 1, 2, and 3 and CCPA were used to prepare the corresponding pharmaceutical compositions according to the following formulation amounts and method. [table] Preparation method: Formulation amounts of compounds 1, 2, and 3 and CCPA were separately weighed out, added to a proper amount of tert-butanol/water mixed solution, and dissolved by stirring. Then formulation amounts of dimyristoylphosphatidylcholine (DMPC) and cholesterol were added and dissolved by stirring. The above solutions were made up to volume (25-40 mL), added to vials, and lyophilized in a lyophilizer for later use. When used, the lyophilizates were dissolved in normal saline to 1 mg/mL, 2 mg/mL, 4 mg/mL, and 8 mg/mL. SD rats, 6 to 8-week-old and weighing 150 g-200 g, were divided into a control group, a model control group, and an administration group. A CFA inflammatory pain model was obtained 24 h after 100 μL of complete Freund's adjuvant was injected into the soles of the left feet of the rats in the model control group and the administration group. The injection was performed at left Zusanli, and the injection volume was 100 μL. [table] Note: For the control group, 100 μL of normal saline was injected into the soles of the feet. For the model control group, 100 μL of normal saline was injected into Zusanli after the model was successfully established. A VonFrey electronic aesthesiometer was used to measure the pain threshold, and mechanical pain was used as an evaluation index. Observations of the basal pain threshold were started 1 day before the model was established and ended 14 days after the model was established. Pain thresholds before and after administration for different groups of animals were plotted using Graph Pad Prism 8.3.0 software. Based on the dose-response curve 48 h after administration, the EC50 and EC90 were obtained through fitting.

With `CCCCCCCCCCCCCCC(=O)OC[C@H]1O[C@@H](n2cnc3c(NC4CCCC4)nc(Cl)nc32)[C@H](O)[C@@H]1O` [Compound 1, ((2R,3S,4R,5R)-5-(2-Chloro-6-(cyclopentylamino)-9H-purin-9-yl)-3,4-dihydroxytetrahydrofuran-2-yl)methyl pentadecanoate] the “EC50 change compared to CCPA” value (compared to CCPA) was 4 fold, the “EC90 change compared to CCPA” value (compared to CCPA) was 6 fold and the “EC50 change compared to compound 2” value (compared to compound 2) was roughly 3 fold. For the same compound, the “EC90 change compared to compound 2” value (compared to compound 2) was roughly 3 fold.
